Test results taken from EPA's ToxRefDB 2.

Assays:
[1] = tested on: rabbit; conditions: Prenatal developmental toxicity study, new zealand white, Oral, Gavage/Intubation, dose end: 19 GD
[2] = tested on: rat; conditions: Combined chronic toxicity/carcinogenicity, sprague dawley, Oral, Feed, dose end: 24 month, group: systemic
[3] = tested on: dog; conditions: Subchronic oral toxicity in dogs, beagle, Capsule, dose end: 90 day, group: systemic, systemic / clinical chemistry / alanine aminotransferase (alt/sgpt) / alanine aminotransferase (alt/sgpt) + systemic / clinical chemistry / …
[4] = tested on: rat; conditions: Prenatal developmental toxicity study, wistar, Oral, Gavage/Intubation, dose end: 16 GD
[5] = tested on: rat; conditions: Subchronic oral toxicity in rodents, sprague dawley, Feed, dose end: 90 day, group: systemic
[6] = tested on: rat; conditions: Multigenerational reproductive toxicity study, sprague dawley, Oral, Feed, dose end: 2 generation
[7] = tested on: dog; conditions: Chronic toxicity, beagle, Oral, Capsule, dose end: 52 week, group: systemic
[8] = group: developmental, systemic / in life observation / body weight / fetal weight
[9] = group: developmental, systemic / in life observation / body weight / fetal weight + developmental / developmental malformation / bone / hole(s)
[10] = group: maternal, systemic / in life observation / body weight / body weight gain + systemic / in life observation / food consumption / food consumption
[11] = systemic / hematology / platelet / platelet
[12] = systemic / pathology microscopic / adrenal gland / vacuolization + systemic / pathology microscopic / liver / fatty change + systemic / …
[13] = group: developmental, developmental / developmental malformation / bone / delayed ossification + developmental / developmental malformation / bone / full …
[14] = group: maternal, reproductive / offspring survival early / offspring survival early other / NOS + systemic / in life observation / body weight / body weight …
[15] = systemic / clinical chemistry / aminopyrine-n-demethylase / aminopyrine-n-demethylase
[16] = group: offspring, systemic / in life observation / body weight / offspring (pup) weight gain + systemic / pathology gross / liver / discolored + systemic / …
[17] = group: parental, systemic / organ weight / liver / nos + systemic / pathology gross / liver / accentuated lobular pattern + systemic / pathology gross / …
[18] = group: reproductive, reproductive / offspring survival early / litter size / litter size
[19] = systemic / organ weight / liver / absolute + systemic / clinical chemistry / alanine aminotransferase (alt/sgpt) / alanine aminotransferase…

Question: Which results are given for `CCCCC(O)(Cn1cncn1)c1ccc(Cl)cc1Cl` (centres undefined) [Hexaconazole]?
Answer: LEL [1, 8]: 50 mg/kg/day; LOAEL [1, 8]: 50 mg/kg/day; NEL [1, 9]: 25 mg/kg/day; NOAEL [1, 9]: 25 mg/kg/day; LOAEL ([1]; group: maternal, systemic / in life observation / body weight / body weight gain): 100 mg/kg/day; LEL [1, 10]: 100 mg/kg/day; NEL [1, 10]: 50 mg/kg/day; NOAEL [1, 10]: 50 mg/kg/day; LEL [2, 11]: 0.47 mg/kg/day; NEL [2, 11]: < 0.47 mg/kg/day; LOAEL [2, 12]: 4.7 mg/kg/day; NOAEL [2, 12]: 0.47 mg/kg/day; LEL [3]: 25 mg/kg/day; LOAEL [3]: 25 mg/kg/day; NEL [3]: 5 mg/kg/day; NOAEL [3]: 5 mg/kg/day; LEL [4, 13]: 2.5 mg/kg/day; LOAEL [4, 13]: 2.5 mg/kg/day; NEL [4, 13]: < 2.5 mg/kg/day; NOAEL [4, 13]: < 2.5 mg/kg/day; LEL [4, 14]: 250 mg/kg/day; LOAEL [4, 14]: 250 mg/kg/day; NEL [4, 14]: 25 mg/kg/day; NOAEL [4, 14]: 25 mg/kg/day; LEL [5, 15]: 2.5 mg/kg/day; NEL [5, 15]: < 2.5 mg/kg/day; NOAEL ([5]; systemic / pathology microscopic / adrenal gland / vacuolization + systemic / clinical chemistry / alanine aminotransferase (alt/sgpt) / …): 2.5 mg/kg/day; LOAEL ([5]; systemic / pathology microscopic / adrenal gland / vacuolization + systemic / pathology microscopic / liver / fatty change): 25 mg/kg/day; LEL [6, 16]: 50 mg/kg/day; LOAEL [6, 16]: 50 mg/kg/day; NEL [6, 16]: 5 mg/kg/day; NOAEL [6, 16]: 5 mg/kg/day; LOAEL [6, 17]: 50 mg/kg/day; NEL [6, 17]: 1 mg/kg/day; NOAEL [6, 17]: 5 mg/kg/day; LEL ([6]; group: parental, systemic / pathology microscopic / liver / fatty change): 5 mg/kg/day; LEL [6, 18]: 50 mg/kg/day; LOAEL [6, 18]: 50 mg/kg/day; NEL [6, 18]: 5 mg/kg/day; NOAEL [6, 18]: 5 mg/kg/day; NEL [7, 19]: 2 mg/kg/day; NOAEL [7, 19]: 2 mg/kg/day; LOAEL ([7]; systemic / organ weight / liver / absolute + systemic / pathology microscopic / liver / lipid deposition): 10 mg/kg/day; LEL ([7]; systemic / organ weight / liver / absolute + systemic / pathology microscopic / liver / lipid deposition + systemic / clinical chemistry / …): 10 mg/kg/day
